Where “and” joins values, the source holds several entries; their conditions need not be identical. Identical values can stand only once.
Molecular target: Nonstructural protein 3 (Zika virus, UniProt A0A024AXB9)
Assay: Functional biochemical assay to identify treatments for viral infectious disease that targets Zika NS2B-NS3 protease. Utilizing a direct enzyme activity measurement method, reading the fluorescence intensity is used to characterize the relative potency of inhibitors as IC50.
Parameters: species or system PRVABC59

Sequence of Nonstructural protein 3 (A0A024AXB9 whole entry): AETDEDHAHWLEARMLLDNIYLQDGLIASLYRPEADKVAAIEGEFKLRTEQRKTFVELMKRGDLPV

IC50	SMILES
22.1 µM	c1ccc2c(CN3CCC(c4cscn4)CC3)c[nH]c2c1
75.6 µM	O=C(Nc1cc(Cl)cc(C(=O)Nc2cccc3c2CNC3)c1)OCc1ccccc1
7.96 µM	NCc1cc(CC(=O)O)cc(NC(=O)c2cc(Cl)cc(NC(=O)OCc3ccccc3)c2)c1
> 99.5 µM	Cc1oc(C(=O)Nc2cccc(CN)c2)cc1COc1ccccc1
> 99.5 µM	Cc1nccnc1Oc1ccc(S(=O)(=O)Nc2ccc(Cl)cc2C(=O)O)cc1
> 99.5 µM	O=C(Nc1ccc2c(c1)OCO2)c1cc(Cl)cc2[nH]ncc12
> 25 µM	Cc1c(C(=O)Nc2cc(C(=O)N3CCn4nccc43)ccn2)cc(C2CC2)n1C
> 99.5 µM	N#C[C@H](c1cc(Cl)cc(C2CC2)c1)N1c2cnccc2C[C@H]1C(=O)O
0.038 µM and 0.03 µM and 0.026 µM	O=C(Nc1cc2c(c(C3=CCS(=O)(=O)CC3)c1)CNC2)c1cc(F)cc2[nH]ncc12
3.72 µM	Cc1ccc(C(C)C)c(C(=O)Nc2ccc3c(c2)CNC3)c1
21.1 µM	O=C(Nc1ccc2c(c1)CNC2)c1ccnc2[nH]ccc12
> 99.5 µM	O=C(O)c1cc(Cl)ccc1S(=O)(=O)Nc1ccc(Oc2ccccn2)cc1
> 99.5 µM	O=C(Nc1cc(Cl)cc(C(=O)Nc2ccc(CCN3CCOCC3)cc2)c1)OCc1ccccc1
> 99.5 µM	CC1(N2CCC(NS(=O)(=O)c3ccc(Cl)cc3C(=O)O)CC2)CCCCC1
72.4 µM	CN1Cc2ccc(CNC(=O)[C@@H](NC(=O)OCc3ccccc3)c3ccc(OCc4ccccc4)cc3)cc2C1
> 25 µM	O=C(Nc1ccc2c(c1)CNC2)N1CCC[C@](O)(c2ccccc2)C1
> 99.5 µM	O=C(Nc1cc(Cl)cc(C(=O)Nc2cc(C(=O)O)ccn2)c1)OCc1ccccc1
> 99.5 µM	O=C(Nc1cc(Cl)cc(C(=O)Nc2cc3n(n2)CCNC3)c1)OCc1ccccc1
> 99.5 µM	O=C(O)c1ccc2nc(Cc3c[nH]c4ccc(Cl)cc34)cn2c1
> 99.5 µM	c1ccc(C2CCN(Cc3ccc4nccnc4c3)CC2)nc1
56.1 µM	c1ccc2c(CN3CCC(c4cnco4)CC3)c[nH]c2c1

IC50	SMILES
> 99.5 µM	O=C1O[C@H]2CCN(Cc3ccc(OCc4ccccc4)cc3)C[C@H]12
> 99.5 µM	CC(=O)N1CCC[C@H]1C(=O)N[C@@H](C(=O)Nc1cccc(CN)c1)c1ccc(OCc2ccccc2)cc1
> 25 µM	Cn1nc(C(=O)Nc2cc(CCCN)ccn2)cc1C1CC1
> 25 µM	CN1CCC([C@H]2CCCN(C(=O)Nc3ccc4c(c3)CNC4)C2)CC1
> 99.5 µM	CCn1nccc1S(=O)(=O)N[C@@H](C(=O)Nc1cccc(CN)c1)c1ccc(OCc2ccccc2)cc1
> 99.5 µM	NCc1cccc(NC(=O)[C@H]2CCc3nnc(C4CC4)n3C2)c1
> 12.7 µM	O=Cc1ccc(N2CCC(C(=O)NC[C@H](O)c3ccc(O)c(O)c3)CC2)cc1
> 99.5 µM	NCCCc1ccnc(NC(=O)c2csc(C3CC3)n2)c1
> 25 µM	COC1CCN(C(=O)c2ccnc(NC(=O)c3cc(C4CC4)n(C)c3C)c2)CC1
> 25 µM	O=C1Cc2c(cccc2C(=O)N[C@H]2CCC[C@@H](C(=O)NC3CC3)C2)N1
60 µM	Cc1ccc(C(=O)N[C@H](C(=O)Nc2cccc(CN)c2)c2ccc(OCc3ccccc3)cc2)s1
3.83 µM	CC(C)NC(=O)[C@H](Nc1ccc2c(c1)CN(C)C2(C)C)c1cc(Cl)cc2[nH]ncc12
87.7 µM	CC(C)c1ccc([C@@H](NC(=O)OCc2ccccc2)C(=O)Nc2cccc(CN)c2)cc1
5.81 µM	Cc1[nH]c2ccccc2c1CN1CCC(c2c[nH]c3ncccc23)CC1
> 99.5 µM	Cc1onc(C(=O)Nc2cccc(CN)c2)c1COc1cccc(F)c1
> 25 µM	O=C1Cc2c(cc(F)cc2C(=O)Nc2cc([C@H]3CCOC3)ccn2)N1
> 99.5 µM	O=C(Nc1cc(Cl)cc(C(=O)Nc2ccc3c(c2)C(=O)NC3)c1)OCc1ccccc1
> 25 µM	CC1=CC[C@H](c2cccc(-c3nn[nH]n3)c2)Nc2cc(Cl)ccc21
> 198 µM	N=C(N)NCCc1ccc(NC(=O)Cc2ccccc2)cc1
9.66 µM and 8.77 µM	NCc1cccc(NC(=O)[C@@H](NC(=O)OCc2ccccc2)c2ccc(Br)c(Cl)c2)c1
0.433 µM	N#Cc1cc(Cl)cc([C@H](C#N)Nc2ccc3c(c2)CNC3)c1

From ChEMBL document CHEMBL5604062, “ASAP - ZIKV NS2B-NS3 protease fluorescence dose response” (2024)
